Assay results as given in US20100273656A1, “COMPOSITION AND METHOD FOR SELECTIVE HERBICIDE” (priority 2002, published 2010).

Experiments:
white clover [1] = assay: Example 23 Cu-, Mn- or ZnHEDTA with Killex, white clover; format: in vivo
Protocol: (§1) Plants were fertilized with an all purpose water-soluble fertilizer mix of 20-20-20 (N-P-K; Plant-Prod®) as needed. All broadleaf weeds were grown individually in a 2¼-inch pot until they were a suitable size for herbicide tests (actual weed size is reported in examples below). Perennial ryegrass was also grown in 2¼-inch pots, however many grass seeds were sown in the pot to simulate a small section of turf. Grass plants were continually trimmed to a height of 4 cm, simulating that of a homeowner's lawn. For field tests, plots ¼ m^2 in size were marked out in areas containing the targeted broadleaf weed species growing in turf grass. Plots were continually mowed to simulate a homeowner's lawn. […] In all of the examples, the amounts of the various herbicide components are identified as a percent on a weight basis.
(§2) Killex® (Scotts Canada, Ltd., Ontario, Canada) is a commonly used selective lawn herbicide and was used as the commercial herbicide for herbicide combinations. The labeled dilution and application rates for Killex® are 6 ml into 1 L of solution (0.6%) applied at 200 ml/m^2.
(§3) All visual plant damage assessments were made using a quantitative rating scale; percent control relative to the untreated check (0=no effect; 100=plant death).
(§4) Materials and Methods: This trial was conducted in the greenhouse. Ten white clover plants and 10 pots of perennial ryegrass were selected for each treatment. Herbicide solutions were prepared using deionized water. The treatments were applied using a hand-trigger sprayer at 200 ml/m^2. All treatments were applied once. Phytotoxicity (%) was assessed 4 and 7 days after treatment (A4 and A7).

perennial ryegrass [2] = assay: Example 23 Cu-, Mn- or ZnHEDTA with Killex, perennial ryegrass; format: in vivo
Protocol: as §1, §2, §3, §4

dandelions [3] = assay: Example 16 metal salts of EDTA, greenhouse dandelion mortality; format: in vivo, Taraxacum officinale; conditions: for Dead Dandelion (#/20): pH 7
Protocol: This test investigated various metal chelates. All chelate solutions contained 0.4% metal ions with 10% excess chelator, and were adjusted to pH 7. For the combinations, these 4 solutions were mixed together in a 1:1 ratio. The solutions were sprayed onto greenhouse grown dandelions at a rate of 100 ml/m^2. The test was re-sprayed after 7 days.

dandelions [4] = assay: Example 7 potassium nonanoate with FeHEDTA, greenhouse dandelions; format: in vivo, Taraxacum officinale
Protocol: (§5) The following non-limiting examples serve to further describe the invention. Unless otherwise specified, all of the iron solutions were made using the same molar concentration of iron ion as chelating agent. All of the outside tests were done on areas of mixed grass and dandelions that were at least 2 months old. For the greenhouse tests, dandelions were grown in a commercial greenhouse mix, using supplemental lighting and heating. Each plant was grown in a 2¼ inch pot to a minimum diameter of 20 cm. All of the solutions were sprayed onto the plants at a rate of 100 ml/m^2. The ferrous sulfate formulations that were used in examples 1, 2, 8 and 9 contained 1% iron (180 mM), 18 mM EDTA, 1% citric acid and 0.5% urea. In all of the examples, the amount of iron is identified in brackets as the percent iron on a weight basis.
(§6) All plant damage was assessed using a qualitative rating scale from 0 to 9.
This test compared the damaged caused by combinations of fatty acid and FeHEDTA. FeHEDTA was used at a concentration to 35.8 mM. The treatment with 0.1% Fe contained twice the molar amount of chelating agent as iron. The treatment with 0.2% iron contained the same molar amount of chelating agent as iron Potassium nonanoate (KC9) was used at 0.84%. The plants were re-sprayed 8 days after the first spray.

dandelions [5] = assay: Example 1 field test of iron chelates, dandelion damage; format: in vivo, Taraxacum officinale; conditions: sprayed once at 100 ml/m^2, 5 days after spraying
Protocol: as §5, §6
(§7) All of the iron chelates were sprayed once at 0.2% Fe^+3 (35.8 mM), at a volume of 100 ml/m^2 onto 0.5 m^2 areas of mixed grass and dandelions. The spraying of the test was followed by 2 days of rain-free weather. Observations were made 5 days after spraying.

dandelion [6] = assay: Example 14 field dandelion test of iron chelates and 50:50 mixtures; format: in vivo, Taraxacum officinale; design: Surviving Dandelions (%): concentration or dose not given beside the values
From the text: Solutions were made of FeHEDTA (0.2% Fe), FeEDTA (0.2% Fe), FeEDDS (0.4% Fe), and FeMGDA (0.4% Fe). For the combinations, these 4 solutions were mixed together in a 1:1 ratio. The plots (0.25 m^2) were sprayed 3 times at weekly intervals at a rate of 0.1 L/m^2. The plots contained a mixture of dandelion and hard fescue turfgrass.

perennial ryegrass [7] = assay: Example 17 iron chelates with Killex, perennial ryegrass; format: in vivo
Protocol: as §1, §2, §3
(§8) Materials and Methods: This trial was conducted in the greenhouse. Nine pots of white clover and 10 pots of perennial ryegrass were selected for each treatment. Herbicidal solutions were prepared using deionized water. The treatments were applied using a handheld trigger sprayer at 200 ml/m^2. All treatments were applied once. Phytotoxicity (%) was assessed 4, 7, and 14 days after application (A4, A7, and A14).

grass = assay: Example 1 field test of iron chelates, grass damage; format: in vivo; conditions: field, sprayed once at 100 ml/m^2, 5 days after spraying
Protocol: as §5, §6, §7

white clover [8] = assay: Example 17 iron chelates with Killex, white clover; format: in vivo
Protocol: as §1, §2, §3, §8

perennial ryegrass [9] = assay: Example 21 Fe chelates with Killex, perennial ryegrass; format: in vivo; conditions: A29 = 29 days after treatment
Protocol: as §1, §2, §3
(§9) Materials and Methods: This trial was conducted in the greenhouse. […] Phytotoxicity (%) was assessed 29 days after treatment (A29).

dandelion [10] = assay: Example 21 Fe chelates with Killex, dandelion; format: in vivo, Taraxacum officinale; conditions: A29 = 29 days after treatment
Protocol: as §1, §2, §3, §9

[11] = day 10 (re-sprayed after 7 days)
[12] = day 6, sprayed 3 times at weekly intervals
[13] = A4 = 4 days after application, 0=no effect, 100=plant death
[14] = A14 = 14 days after application

For `O=C([O-])CN(CCO)CCN(CC(=O)[O-])CC(=O)[O-].[Cu+2]` [CuHEDTA 0.4% Cu], the “Phytotoxicity (%) against white clover” value (white clover [1]; A4) was 32%, the “Phytotoxicity (%) against white clover” value (white clover [1]; A7) was 62% and the “Phytotoxicity (%) on perennial ryegrass” value (perennial ryegrass [2]; A4) was 3%. The “Phytotoxicity (%) on perennial ryegrass” value (perennial ryegrass [2]; A7) was 3%.
For `O=C([O-])CN(CCO)CCN(CC(=O)[O-])CC(=O)[O-].[Mn+2]` [MnHEDTA 0.4% Mn], the “Phytotoxicity (%) against white clover” value (white clover [1]; A4) was 9%, the “Phytotoxicity (%) against white clover” value (white clover [1]; A7) was 12% and the “Phytotoxicity (%) on perennial ryegrass” value (perennial ryegrass [2]; A4) was 1%. For the same compound, the “Phytotoxicity (%) on perennial ryegrass” value (perennial ryegrass [2]; A7) was 1%.
With `[Cl][Fe]([Cl])[Cl]` [FeCl3 (0.4% Fe), ferric chloride] the “Dead Dandelion (#/20)” value (dandelions [3]; day 7) was 0 #/20 and the “Dead Dandelion (#/20)” value (dandelions [3]; [11]) was 0 #/20.
For `CCCCCCCCC(=O)[O-].[K+]` [KC9, Potassium nonanoate], the “Dead Plants (#/10)” value (dandelions [4]; 8 + 5 days after spraying) was 0 #/10, the “Plant Damage (0 to 9)” value (dandelions [4]; 8 + 5 days after spraying (re-sprayed after 8 days)) was 0.6 0 to 9 and the “Plant Damage (0 to 9)” value (dandelions [4]; 7 days after spraying) was 0.0 0 to 9.
In the case of `O=C([O-])CN(CCN(CCO)CC(=O)O)CC(=O)[O-].[Zn+2]` [ZnHEDTA 0.4% Zn], the “Phytotoxicity (%) against white clover” value (white clover [1]; A4) is reported as 4%, the “Phytotoxicity (%) against white clover” value (white clover [1]; A7) is reported as 3% and the “Phytotoxicity (%) on perennial ryegrass” value (perennial ryegrass [2]; A4) is reported as 1%. The “Phytotoxicity (%) on perennial ryegrass” value (perennial ryegrass [2]; A7) was 0%.
`O=C([O-])CN(CCN(CC(=O)O)CC(=O)O)CC(=O)[O-].[Cu+2]` [Cu EDTA (0.4% Cu)] was tested, and the “Dead Dandelion (#/20)” value (dandelions [3]; day 7) was 0 #/20 and the “Dead Dandelion (#/20)” value (dandelions [3]; [11]) was 4 #/20.
`O=C([O-])CN(CCN(CC(=O)[O-])CC(=O)O)CC(=O)[O-].[Al+3]` [Al EDTA (0.4% Al)] was tested, and the “Dead Dandelion (#/20)” value (dandelions [3]; day 7) was 0 #/20 and the “Dead Dandelion (#/20)” value (dandelions [3]; [11]) was 0 #/20.
For `O=C([O-])CN(CCN(CC(=O)O)CC(=O)O)CC(=O)[O-].[Zn+2]` [Zn EDTA (0.4% Zn)], the “Dead Dandelion (#/20)” value (dandelions [3]; day 7) was 0 #/20 and the “Dead Dandelion (#/20)” value (dandelions [3]; [11]) was 0 #/20.
In the case of FeEDTA, the “Dandelion Damage (0 to 9)” value (dandelions [5]) is reported as 8.3 0 to 9, the “Area Covered by Dandelion (%)” value (dandelion [6]; day 0) is reported as 30% and the “Dandelion Count (#/0.25 m^2)” value (dandelion [6]; day 0) is reported as 56 #/0.25 m^2. For the same compound, the “Dandelion Count (#/0.25 m^2)” value (dandelion [6]; day 6) was 33 #/0.25 m^2, the “Surviving Dandelions (%)” value (dandelion [6]; day 6) was 59% and the “Area Covered by Dandelion (%)” value (dandelion [6]; [12]) was 10%. For the same compound, the “Dandelion Necrosis (%)” value (dandelion [6]; day 11) was 90%, the “Dandelion Count (#/0.25 m^2)” value (dandelion [6]; day 13) was 20 #/0.25 m^2 and the “Surviving Dandelions (%)” value (dandelion [6]; day 13) was 36%. The “Area Covered by Dandelion (%)” value (dandelion [6]; day 15) was 7%, the “Dandelion Necrosis (%)” value (dandelion [6]; day 18) was 98% and the “Area Covered by Dandelion (%)” value (dandelion [6]; day 21) was 1%. The “Dandelion Count (#/0.25 m^2)” value (dandelion [6]; day 21) was 19 #/0.25 m^2, the “Surviving Dandelions (%)” value (dandelion [6]; day 21) was 34% and the “Dandelion Necrosis (%)” value (dandelion [6]; day 33) was 90%. For the same compound, the “Phytotoxicity (%) against perennial ryegrass” value (perennial ryegrass [7]; A4) was 4%, the “Phytotoxicity (%) against perennial ryegrass” value (perennial ryegrass [7]; A7) was 2% and the “Phytotoxicity (%) against perennial ryegrass” value (perennial ryegrass [7]; A14) was 0%. The “Grass Damage (0 to 9)” value (grass) was 1, the “Phytotoxicity (%) against white clover” value (white clover [8]; [13]) was 15% and the “Phytotoxicity (%) against white clover” value (white clover [8]; A7 = 7 days after application) was 15%. For the same compound, the “Phytotoxicity (%) against white clover” value (white clover [8]; [14]) was 6%, the “herbicidal comparison of metal EDTA chelates, in words” value (dandelions [3]; Example 16, text) was “better herbicide than Al EDTA, Cu EDTA and ZnEDTA” and the “Dead Dandelion (#/20)” value (dandelions [3]; day 7) was 10 #/20. For the same compound, the “Dead Dandelion (#/20)” value (dandelions [3]; [11]) was 17 #/20.
`CC(C(=O)[O-])N(CC(=O)[O-])CC(=O)[O-].[Fe+3]` (stereo not shown) [FeMGDA] was tested, and the “Area Covered by Dandelion (%)” value (dandelion [6]; day 0) was 30%, the “Dandelion Count (#/0.25 m^2)” value (dandelion [6]; day 0) was 72 #/0.25 m^2 and the “Dandelion Count (#/0.25 m^2)” value (dandelion [6]; day 6) was 71 #/0.25 m^2. The “Surviving Dandelions (%)” value (dandelion [6]; day 6) was 99%, the “Area Covered by Dandelion (%)” value (dandelion [6]; [12]) was 17% and the “Dandelion Necrosis (%)” value (dandelion [6]; day 11) was 85%. For the same compound, the “Dandelion Count (#/0.25 m^2)” value (dandelion [6]; day 13) was 43 #/0.25 m^2, the “Surviving Dandelions (%)” value (dandelion [6]; day 13) was 60% and the “Area Covered by Dandelion (%)” value (dandelion [6]; day 15) was 12%. For the same compound, the “Dandelion Necrosis (%)” value (dandelion [6]; day 18) was 99%, the “Area Covered by Dandelion (%)” value (dandelion [6]; day 21) was 2% and the “Dandelion Count (#/0.25 m^2)” value (dandelion [6]; day 21) was 19 #/0.25 m^2. For the same compound, the “Surviving Dandelions (%)” value (dandelion [6]; day 21) was 26%, the “Dandelion Necrosis (%)” value (dandelion [6]; day 33) was 80% and the “Phytotoxicity (%) on perennial ryegrass” value (perennial ryegrass [9]) was 0%. The “Phytotoxicity (%) against perennial ryegrass” value (perennial ryegrass [7]; A4) was 0%, the “Phytotoxicity (%) against perennial ryegrass” value (perennial ryegrass [7]; A7) was 0% and the “Phytotoxicity (%) against perennial ryegrass” value (perennial ryegrass [7]; A14) was 0%. The “Phytotoxicity (%) against dandelion” value (dandelion [10]) was 12%, the “Phytotoxicity (%) against white clover” value (white clover [8]; [13]) was 4% and the “Phytotoxicity (%) against white clover” value (white clover [8]; A7 = 7 days after application) was 5%. The “Phytotoxicity (%) against white clover” value (white clover [8]; [14]) was 2%.
